The term IC50 denotes the concentration that inhibits the measured activity by half.

Each structure is given as a SMILES string.

Experimental findings from patent US20050282818A1, “Ubiquitin ligase inhibitors” (Rigel Pharmaceuticals, Inc., priority 2004, published 2005) are described below.

Chain of APC11/APC2 (Q9NYG5 whole entry): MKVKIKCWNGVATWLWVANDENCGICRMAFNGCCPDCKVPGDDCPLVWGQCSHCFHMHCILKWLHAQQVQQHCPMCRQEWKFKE
Chain of APC11/APC2 (Q9UJX6 whole entry): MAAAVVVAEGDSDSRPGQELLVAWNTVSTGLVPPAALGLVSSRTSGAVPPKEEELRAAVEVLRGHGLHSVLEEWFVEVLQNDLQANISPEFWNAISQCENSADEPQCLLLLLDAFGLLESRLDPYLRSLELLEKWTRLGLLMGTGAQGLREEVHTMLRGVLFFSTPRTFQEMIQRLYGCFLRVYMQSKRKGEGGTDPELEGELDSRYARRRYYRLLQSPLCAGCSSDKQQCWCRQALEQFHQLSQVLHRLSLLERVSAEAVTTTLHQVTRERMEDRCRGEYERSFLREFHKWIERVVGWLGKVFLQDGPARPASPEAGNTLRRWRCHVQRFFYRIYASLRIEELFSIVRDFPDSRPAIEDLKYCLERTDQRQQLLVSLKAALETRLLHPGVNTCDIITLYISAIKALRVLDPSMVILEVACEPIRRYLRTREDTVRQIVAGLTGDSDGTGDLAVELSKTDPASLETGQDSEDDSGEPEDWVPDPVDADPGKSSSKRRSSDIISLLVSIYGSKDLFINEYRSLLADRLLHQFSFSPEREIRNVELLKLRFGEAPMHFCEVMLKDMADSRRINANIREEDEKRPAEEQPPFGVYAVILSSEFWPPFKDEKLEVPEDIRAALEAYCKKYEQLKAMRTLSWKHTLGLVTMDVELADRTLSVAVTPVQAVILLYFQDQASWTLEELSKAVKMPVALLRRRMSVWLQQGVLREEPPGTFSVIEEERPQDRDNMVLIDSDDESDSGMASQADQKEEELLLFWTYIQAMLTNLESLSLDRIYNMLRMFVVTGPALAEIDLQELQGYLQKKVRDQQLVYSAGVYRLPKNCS

One assay deals with ICAM-1 expression in A549 cells. The assay is described as follows: ICAM assay (IL-1 induced ICAM-1/CD54 expression in A549 cells). The following applies: Homo sapiens, A549, ICAM assay. It counts as cell-based, human. The method, boiled down: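 A549 cells, 10,000/well, preincubated with compound 1 h at 37° C, then stimulated with IL-1 (4 μl of 25 ng/ml added) for 4 h. Surface ICAM-1 detected by anti-CD54 plus anti-mouse IgG staining for 1 h, luminescent read-out after PBS washes.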
On to `O=S(=O)(Nc1ccc2cn[nH]c2c1)c1ccc(Cl)c2nonc12` [compound 220, 7-chloro-N-1 H-indazol-6-yl-2,1,3-benzoxadiazole-4-sulfonamide], for which the IC50 is not below 20 µM.

In turn, `O=S(=O)(c1ccc(Cl)c2nonc12)N1CCN(c2ccccc2)CC1` [compound 186, 4-chloro-7-[(4-phenylpiperazin-1-yl)sulfonyl]-2,1,3-benzoxadiazole] yielded an IC50 not below 20 µM.

`CC(=O)N1CCN(S(=O)(=O)c2c(Sc3cccc4cccnc34)ccc3nonc23)CC1` [compound 214, 8-({4-[(4-acetylpiperazin-1-yl)sulfonyl]-2,1,3-benzoxadiazol-5-yl}thio)quinoline] gave an IC50 not below 20 µM.

`O=S(=O)(Nc1cccc(F)c1)c1ccc(Cl)c2nonc12` [compound 263, 7-chloro-N-(3-fluorophenyl)-2,1,3-benzoxadiazole-4-sulfonamide] gave an IC50 not below 20 µM. Turning to `O=c1[nH]c2ccccc2n1C1CCN(S(=O)(=O)c2ccc(Cl)c3nonc23)CC1` [compound 188, 1-{1-[(7-chloro-2,1,3-benzoxadiazol-4-yl)sulfonyl]piperidin-4-yl}-1,3-dihydro-2H-benzimidazol-2-one], the IC50 was not below 20 µM. As to `O=S(=O)(Nc1ccc(F)c(F)c1)c1ccc(Cl)c2nonc12` [compound 262, 7-chloro-N-(3,4-difluorophenyl)-2,1,3-benzoxadiazole-4-sulfonamide], the IC50 was not below 20 µM.

Turning to `N#Cc1ccc(N2CCN(S(=O)(=O)c3c(Cl)ccc4nonc34)CC2)nc1` [compound 209, 6-{4-[(5-chloro-2,1,3-benzoxadiazol-4-yl)sulfonyl]piperazin-1-yl}nicotinonitrile], the IC50 is not below 20 µM. `O=S(=O)(c1ccc(Cl)c2nonc12)N1CCN(c2ncccn2)CC1` [compound 184, 4-chloro-7-[(4-pyrimidin-2-ylpiperazin-1-yl)sulfonyl]-2,1,3-benzoxadiazole] showed an IC50 not below 20 µM. Turning to `CC1CC(C)CN(S(=O)(=O)c2ccc(Cl)c3nonc23)C1` (centres unmarked) [compound 192, 4-chloro-7-[(3,5-dimethylpiperidin-1-yl)sulfonyl]-2,1,3-benzoxadiazole], the IC50 was not below 20 µM. As for `COC(=O)c1ccc(NS(=O)(=O)c2ccc(F)c3nonc23)cc1` [compound 167, methyl 4-{[(7-fluoro-2,1,3-benzoxadiazol-4-yl)sulfonyl]amino}benzoate], the IC50 was not below 20 µM. In turn, `O=[N+]([O-])c1ccc(SCCO)c2nonc12` [compound 150, 2-[(7-nitro-2,1,3-benzoxadiazol-4-yl)thio]ethanol] showed an IC50 not below 20 µM. Compound `COC(=O)c1ccc(NS(=O)(=O)c2c(Cl)ccc3nonc23)cc1` [compound 178, methyl 4-{[(5-chloro-2,1,3-benzoxadiazol-4-yl)sulfonyl]amino}benzoate] yielded an IC50 not below 20 µM.

In the case of `N#Cc1ccccc1N1CCN(S(=O)(=O)c2c(Cl)ccc3nonc23)CC1` [compound 180, 2-{4-[(5-chloro-2,1,3-benzoxadiazol-4-yl)sulfonyl]piperazin-1-yl}benzonitrile], the IC50 was not below 20 µM.

The compound `O=S(=O)(c1c(Cl)ccc2nonc12)N1CCN(c2cnccn2)CC1` [compound 200, 5-chloro-4-[(4-pyrazin-2-ylpiperazin-1-yl)sulfonyl]-2,1,3-benzoxadiazole] had an IC50 not below 20 µM.

On to `CC(=O)N1CCN(S(=O)(=O)c2c(Cl)ccc3nonc23)CC1` [compound 201, 4-[(4-acetylpiperazin-1-yl)sulfonyl]-5-chloro-2,1,3-benzoxadiazole], for which the IC50 is not below 20 µM. Regarding `O=S(=O)(c1ccc(Sc2ccc(O)cc2)c2nonc12)N1CCC(Oc2ncccn2)CC1` [compound 226, 4-[(7-{[4-(pyrimidin-2-yloxy)piperidin-1-yl]sulfonyl}-2,1,3-benzaxadiazol-4-yl)thio]phenol], the IC50 is not below 20 µM.

As to `Cc1cccc(N2CCN(S(=O)(=O)c3c(Cl)ccc4nonc34)CC2)n1` [compound 202, 5-chloro-4-{[4-(6-methylpyridin-2-yl)piperazin-1-yl]sulfonyl}-2,1,3-benzoxadiazole], the IC50 was not below 20 µM. On to `N#Cc1cccnc1N1CCN(S(=O)(=O)c2ccc(Cl)c3nonc23)CC1` [compound 170, 2-{4-[(7-chloro-2,1,3-benzoxadiazol-4-yl)sulfonyl]piperazin-1-yl}nicotinomtrile], for which the IC50 was not below 20 µM.

For the next assay, the target named is APC11/APC2 (Homo sapiens, UniProt Q9NYG5+Q9UJX6). The assay is described as follows: APC-11/APC-2 ligase assay (APC auto ubiquitination). The following applies: APC assay. It counts as biochemical. The essentials:
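His-tagged APC was captured on nickel plates with human E1 (5 ng/well), UbcH5c (20 ng/well), APC (100 ng/well) and Flag-ubiquitin (100 ng/well) in a Tris pH 7.6 reaction buffer containing 2.5 mM ATP, for 1 hour at room temperature. Read-out was anti-Flag/HRP chemiluminescence. IC50 was set against a DMSO control, typically from 6 or 8 concentrations.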
The compound `O=[N+]([O-])c1ccc(N2CCN(c3ncccn3)CC2)c2nonc12` [compound 109, 4-nitro-7-(1,3-(pyrimidin-2-yl)piperazin-1-yl)-2,1,3-benzoxadiazole] displayed an IC50 of 1 to 20 µM. `O=[N+]([O-])c1ccc(N2CCN(c3ccc(O)cc3)CC2)c2nonc12` [compound 146, 4-[4-(7-nitro-2,1,3-benzoxadiazol-4-yl)piperazin-1-yl]phenol] registered an IC50 of 1 to 20 µM. Still for that read-out and setting: as for `O=S(=O)(Oc1ccc(N2CCN(S(=O)(=O)c3ccc(Cl)c4nonc34)CC2)cc1)c1ccc(Cl)c2nonc12` [compound 171, 4-{4-[(7-chloro-2,1,3-benzoxadiazol-4-yl)sulfonyl]piperazin-1-yl}phenyl 7-chloro-2,1,3-benzoxadiazole-4-sulfonate], the figure is 1 to 20 µM. Consider `O=S(=O)(Nc1cccc2nonc12)c1ccc(Oc2ncc(C(F)(F)F)cc2Cl)cc1` [compound 78, N-2,1,3-benzoxadiazol-4-yl-4-{[3-chloro-5-(trifluoromethyl)pyridin-2-yl]oxy}benzenesulfonamide], for which the IC50 is 1 to 20 µM.

`N#CC1(c2ccccc2)CCN(c2ccc([N+](=O)[O-])c3nonc23)CC1` [compound 141, 1-(7-nitro-2,1,3-benzoxadiazol-4-yl)-4-phenylpiperidine-4-carbonitrile] came in with an IC50 of 1 to 20 µM. Turning to `O=[N+]([O-])c1ccc(N2CCN(c3cc(C(F)(F)F)ccn3)CC2)c2nonc12` [compound 90, 4-nitro-7-{4-[4-(trifluoromethyl)pyridin-2-yl]piperazin-1-yl}-2,1,3-benzoxadiazole], the IC50 lay in the range of 1 to 20 µM. In turn, `Cc1cc(C)cc(-c2ccc([N+](=O)[O-])c3nonc23)c1` [compound 286, 4-(3,5-Dimethylphenyl)-7-nitro-2,1,3-benzoxadiazole] came in with an IC50 of 1 to 20 µM. `O=C(c1ccc(F)cc1)C1CCN(c2ccc([N+](=O)[O-])c3nonc23)CC1` [compound 142, (4-fluorophenyl)[1-(7-nitro-2,1,3-benzoxadiazol-4-yl)piperidin-4-yl]methanone] returned a concentration for half-maximal inhibition (IC50) of 1 to 20 µM. As for `Cc1ccc(N2CCN(c3ccc([N+](=O)[O-])c4nonc34)CC2)cc1C` [compound 140, 4-[4-(3,4-dimethylphenyl)piperazin-1-yl]-7-nitro-2,1,3-benzoxadiazole], the IC50 was 1 to 20 µM. On to `N#Cc1ccc(N2CCN(c3ccc([N+](=O)[O-])c4nonc34)CC2)nc1` [compound 121, 6-[4-(7-nitro-2,1,3-benzoxadiazol-4-yl)piperazin-1-yl]nicotinonitrile], for which the IC50 was 1 to 20 µM. Compound `O=[N+]([O-])c1ccc(N2CCN(c3ncccc3C(F)(F)F)CC2)c2nonc12` [compound 148, 4-nitro-7-{4-[3-(trifluoromethyl)pyridin-2-yl]piperazin-1-yl}-2,1,3-benzoxadiazole] yielded an IC50 of 1 to 20 µM. The same measure, in the same setting: the value for `CCOC(=O)c1cc(C#N)c(C)nc1N1CCN(c2ccc([N+](=O)[O-])c3nonc23)CC1` [compound 153, ethyl 5-cyano-6-methyl-2-[4-(7-nitro-2,1,3-benzoxadiazol-4-yl)piperazin-1-yl]nicotinate] was 1 to 20 µM. Take `O=[N+]([O-])c1ccc(N2CCN(c3ncc(C(F)(F)F)cc3Cl)CC2)c2nonc12` [compound 315, 4-{4-[3-chloro-5-(trifluoromethyl)pyrindin-2-yl]piperazin-1-yl}-7-nitro-2,1,3-benzoxadiazole]: the IC50 is less than 1 µM. `O=[N+]([O-])c1ccc(N2CCC(O)(c3ccc(Cl)cc3)CC2)c2nonc12` [compound 159, 4-(4-chlorophenyl)-1-(7-nitro-2,1,3-benzoxadiazol-4-yl)piperidin-4-ol] came in with an IC50 of 1 to 20 µM. In the case of `O=[N+]([O-])c1ccc(Oc2c(Cl)cc(S(=O)(=O)Nc3cccc4nsnc34)cc2Cl)c(Cl)c1` [compound 73, N-2,1,3-benzothiadiazol-4-yl-3,5-dichloro-4-(2-chloro-4-nitrophenoxy)benzenesulfonamide], the 50% inhibitory concentration (IC50) was 1 to 20 µM. Regarding `O=[N+]([O-])c1ccc(Sc2cccc3cccnc23)c2nonc12` [compound 5, 8-[(7-Nitro-2,1,3-benzoxadiazol-4-yl)thio]quinoline], the IC50 lay in the range of 1 to 20 µM. Compound `COc1cccc(-c2ccc([N+](=O)[O-])c3nonc23)c1F` [compound 314, 4-(2-Fluoro-3-methoxyphenyl)-7-nitro-2,1,3-benzoxadiazole] had a half-inhibitory concentration (IC50) of 1 to 20 µM. For `CC1CC(C)CN(c2ccc([N+](=O)[O-])c3nonc23)C1` (centres unmarked) [compound 144, 4-(3,5-dimethylpiperidin-1-yl)-7-nitro-2,1,3-benzoxadiazole], the IC50 lay within 1 to 20 µM. For the compound `O=S(=O)(c1c(N2CCN(c3ccc(Cl)c(C(F)(F)F)c3)CC2)ccc2nonc12)N1CCN(c2ccc(Cl)c(C(F)(F)F)c2)CC1` [compound 181, 5-{4-[4-chloro-3-(trifluoromethyl)phenyl]piperazin-1-yl}-4-({4-[4-chloro-3-(trifluoromethyl)phenyl]piperazin-1-yl}sulfonyl)-2,1,3-benzoxadiazole], the IC50 was 1 to 20 µM.

As to `Cc1ccc(Cl)cc1N1CCN(c2ccc([N+](=O)[O-])c3nonc23)CC1` [compound 145, 4-[4-(5-chloro-2-methylphenyl)piperazin-1-yl]-7-nitro-2,1,3-benzoxadiazole], the IC50 is 1 to 20 µM.
